In ChEMBL document CHEMBL1129599, “Quantitative structure-activity relationship study of fibrinogen inhibitors, [[4-(4-amidinophenoxy)butanoyl]aspartyl]valine (FK633) derivatives, using a novel hydrophobic descriptor” (J Med Chem, 1996):

Experiments:
[1] = The retention time in min (35 uM); type: ADME
[2] = The retention time in min (40 uM); type: ADME
[3] = Micelle/water partition coefficient; type: ADME; conditions: buffer
[4] = The retention time in min (25 uM); type: ADME
[5] = The retention time in min (30 uM); type: ADME
[6] = target: T1, Integrin alpha-IIb/beta-3 (Homo sapiens, UniProt P05106+P08514); assay: Inhibition of binding to integrin alphaIIb-beta3; type: protein-complex assay
[7] = Inhibition of alphaIIb-beta3 integrin
[8] = target: T1, Integrin alpha-IIb/beta-3; assay: Inhibition of alphaIIb-beta3 integrin; type: protein-complex assay
[9] = Inhibition of binding to fibrinogen receptor

T1 sequence (P05106 27-788 limits assumed): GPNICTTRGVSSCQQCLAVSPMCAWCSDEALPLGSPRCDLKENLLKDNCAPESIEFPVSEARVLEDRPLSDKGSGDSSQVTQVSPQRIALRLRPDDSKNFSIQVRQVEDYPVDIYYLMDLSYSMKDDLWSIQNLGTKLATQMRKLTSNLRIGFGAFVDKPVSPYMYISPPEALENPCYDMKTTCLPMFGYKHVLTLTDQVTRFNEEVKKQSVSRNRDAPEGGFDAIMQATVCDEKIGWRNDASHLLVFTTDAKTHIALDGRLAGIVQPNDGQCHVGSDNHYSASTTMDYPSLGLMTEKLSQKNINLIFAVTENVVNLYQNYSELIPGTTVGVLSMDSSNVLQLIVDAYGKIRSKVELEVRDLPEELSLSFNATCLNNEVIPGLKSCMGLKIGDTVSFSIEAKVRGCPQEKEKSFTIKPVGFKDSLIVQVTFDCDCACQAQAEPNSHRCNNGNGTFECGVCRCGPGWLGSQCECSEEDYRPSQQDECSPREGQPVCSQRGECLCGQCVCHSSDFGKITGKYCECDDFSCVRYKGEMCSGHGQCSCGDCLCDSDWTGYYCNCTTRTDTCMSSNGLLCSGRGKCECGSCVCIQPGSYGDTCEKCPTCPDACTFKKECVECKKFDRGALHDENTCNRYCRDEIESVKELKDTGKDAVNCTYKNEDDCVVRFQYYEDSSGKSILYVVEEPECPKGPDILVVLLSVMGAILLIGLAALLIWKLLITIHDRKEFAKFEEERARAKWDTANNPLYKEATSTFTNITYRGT
T1 sequence (P08514 32-887 limits assumed): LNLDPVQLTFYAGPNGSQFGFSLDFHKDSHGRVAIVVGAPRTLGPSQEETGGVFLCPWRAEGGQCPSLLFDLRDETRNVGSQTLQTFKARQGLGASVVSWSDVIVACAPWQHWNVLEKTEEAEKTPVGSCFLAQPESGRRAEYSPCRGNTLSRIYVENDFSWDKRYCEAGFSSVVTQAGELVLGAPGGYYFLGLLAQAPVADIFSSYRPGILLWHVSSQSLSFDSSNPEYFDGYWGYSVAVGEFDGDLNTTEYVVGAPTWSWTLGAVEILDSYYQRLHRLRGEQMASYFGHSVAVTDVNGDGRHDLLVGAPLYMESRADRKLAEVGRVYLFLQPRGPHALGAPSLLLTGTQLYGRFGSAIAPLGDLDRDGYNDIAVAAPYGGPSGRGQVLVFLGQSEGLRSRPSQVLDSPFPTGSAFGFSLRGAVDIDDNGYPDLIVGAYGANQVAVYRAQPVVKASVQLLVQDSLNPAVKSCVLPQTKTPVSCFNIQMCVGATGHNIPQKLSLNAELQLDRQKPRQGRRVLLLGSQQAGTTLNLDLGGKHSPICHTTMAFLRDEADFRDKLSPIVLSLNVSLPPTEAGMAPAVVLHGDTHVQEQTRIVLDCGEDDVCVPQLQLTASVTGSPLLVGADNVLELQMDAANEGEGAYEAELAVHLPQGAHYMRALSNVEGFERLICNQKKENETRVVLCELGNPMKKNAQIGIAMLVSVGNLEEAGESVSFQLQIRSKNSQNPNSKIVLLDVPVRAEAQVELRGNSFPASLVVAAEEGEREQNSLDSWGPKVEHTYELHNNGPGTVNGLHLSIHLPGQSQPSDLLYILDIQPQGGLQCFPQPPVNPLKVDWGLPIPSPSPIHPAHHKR
T1 sequence (P08514 891-1039 limits assumed): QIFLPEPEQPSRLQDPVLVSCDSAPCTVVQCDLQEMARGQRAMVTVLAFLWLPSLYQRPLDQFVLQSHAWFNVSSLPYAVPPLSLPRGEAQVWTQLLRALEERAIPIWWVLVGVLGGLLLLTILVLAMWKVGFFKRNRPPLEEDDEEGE

SMILES | Retention time [1] [min] | Retention time [2] [min] | Log Pmw [3] | Retention time [4] [min] | Retention time [5] [min] | IC50 [6] [µM] | Log IC50 [7] | IC50 [8] [µM] | Log IC50 [9]
COC(=O)[C@H](Cc1ccc(O)cc1)NC(=O)[C@H](CC(=O)O)NC(=O)CCCCOc1ccc(C(=N)N)cc1 | 15.56 | 14.28 | 2.09 | 20.18 | 17.31 | 4.47 |  |  | 
CN(C(=O)[C@H](CC(=O)O)NC(=O)CCCCOc1ccc(C(=N)N)cc1)[C@@H](Cc1ccc(O)cc1)C(=O)O | 14.24 | 12.91 | 2 | 17.87 | 15.67 |  | -6.57 |  | 
CN(C(=O)[C@H](CC(=O)O)NC(=O)CCCOc1ccc(C(=N)N)cc1)[C@@H](Cc1ccc(O)cc1)C(=O)O | 11.82 | 10.91 | 1.96 | 14.85 | 13.01 |  |  | 0.129 | 
CC(C)[C@H](NC(=O)[C@H](CC(=O)O)NC(=O)CCCCOc1ccc(C(=N)N)cc1)C(=O)O | 6.832 | 6.52 | 1.32 | 7.547 | 7.12 |  | -6.64 |  | 
N=C(N)c1ccc(OCCCC(=O)N[C@@H](CC(=O)O)C(=O)N[C@@H](Cc2ccc(O)cc2)C(=O)O)cc1 | 8.79 | 8.23 | 1.74 | 10.54 | 9.51 |  |  |  | 
N=C(N)c1ccc(OCCCCC(=O)N[C@@H](CC(=O)O)C(=O)N[C@@H](Cc2ccc(O)cc2)C(=O)O)cc1 | 10.57 | 9.72 | 1.82 | 12.79 | 11.47 |  | -6.19 |  | 
CC(C)[C@H](NC(=O)[C@H](CC(=O)O)NC(=O)CCCOc1ccc(C(=N)N)cc1)C(=O)O | 5.347 | 5.207 | 1.29 | 5.898 | 5.545 |  |  | 0.11 | 

Next, values leading:

Retention time [1] [min] | Retention time [2] [min] | Log Pmw [3] | Retention time [4] [min] | Retention time [5] [min] | IC50 [6] [µM] | Log IC50 [7] | IC50 [8] [µM] | Log IC50 [9] | SMILES
8.25 | 7.826 | 1.47 | 9.413 | 8.773 |  | -6.85 |  |  | CC[C@H](C)[C@H](NC(=O)[C@H](CC(=O)O)NC(=O)CCCOc1ccc(C(=N)N)cc1)C(=O)O
12.06 | 11.19 | 1.59 | 14.11 | 12.96 |  |  | 0.229 |  | CC(C)(C)C[C@H](NC(=O)[C@H](CC(=O)O)NC(=O)CCCOc1ccc(C(=N)N)cc1)C(=O)O
3.238 | 3.199 | 0.904 | 3.324 | 3.269 |  |  |  |  | N=C(N)c1ccc(OCCCCC(=O)N[C@@H](CC(=O)O)C(=O)N[C@@H](CO)C(=O)O)cc1
8.25 | 7.826 | 1.47 | 9.413 | 8.773 |  |  | 0.135 |  | CC(C)C[C@H](NC(=O)[C@H](CC(=O)O)NC(=O)CCCOc1ccc(C(=N)N)cc1)C(=O)O
9.491 | 8.943 | 1.58 | 11.11 | 10.21 |  |  |  | -7.12 | CCCC[C@H](NC(=O)[C@H](CC(=O)O)NC(=O)CCCOc1ccc(C(=N)N)cc1)C(=O)O
